From patent publication US20240360178A1, “MACROCYCLIC IMMUNOMODULATORS” (Bristol-Myers Squibb Company, priority 2021, published 2024)
Positions of bridges follow the written chain, without caps; N, C: chain ends. Non-standard residues stand in square brackets, D forms with d. Residues, ends and D or L forms follow the SMILES beside them. Bip = N[C@@H](Cc1ccc(-c2ccccc2)cc1)C(=O)O; NMeF = CN[C@@H](Cc1ccccc1)C(=O)O; dTic = O=C(O)[C@H]1Cc2ccccc2CN1; NMeA = CN[C@@H](C)C(=O)O; Orn = NCCC[C@H](N)C(=O)O; Dap = NC[C@H](N)C(=O)O

Molecular target: T1, human PD-1 (Jurkat-PD-1 cells) / PE-labeled human PD-L1-Ig (Homo sapiens, UniProt Q15116)
T1 construct: expressed in transfected cells; host or cells: Jurkat cell line over-expressing human PD-1
Assay: Jurkat-PD-1 Cell Binding High-Content Screening Assay (CBA); Jurkat hPD1-PDL1 assay
Details: Jurkat cell line over-expressing human PD-1; PE-labeled PD-L1-Ig 20 nM final; compound incubated 2 hours at 37° C.; read-out: Jurkat HPD1-PDL1 IC50
Procedure, shortened: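 Jurkat-hPD-1 cells; cpd 2 h, 37° C; then PE-PD-L1-Ig 20 nM final in DMEM/10% FCS; high-content imaging read-out.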

T1 sequence (Q15116 25-288): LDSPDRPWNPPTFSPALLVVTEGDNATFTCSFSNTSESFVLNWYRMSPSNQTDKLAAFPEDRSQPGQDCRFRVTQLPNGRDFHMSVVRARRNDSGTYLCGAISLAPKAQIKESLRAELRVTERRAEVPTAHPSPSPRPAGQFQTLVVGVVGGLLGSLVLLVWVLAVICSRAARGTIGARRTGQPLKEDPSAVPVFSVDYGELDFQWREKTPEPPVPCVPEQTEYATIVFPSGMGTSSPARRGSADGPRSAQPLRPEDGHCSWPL

| Structure (SMILES) | IC50 [nM] |
| --- | --- |
| CC(C)C[C@@H]1NC(=O)[C@H](CCCN)NC(=O)[C@H](Cc2ccccc2)N(C)C(=O)[C@H](C)N(C)C(=O)[C@H](CCC(=O)O)NC(=O)[C@H](Cc2ccc(-c3ccccc3)cc2)NC(=O)[C@H](C(C)C)NC(=O)[C@H](Cc2c[nH]c3ccccc23)NC(=O)[C@H](CC(=O)O)NC(=O)[C@H](Cc2ccc(O)cc2)NC(=O)[C@H](Cc2ccccc2)NC(=O)CSC[C@@H](C(=O)N[C@@H](CCC(=O)O)C(N)=O)NC(=O)[C@H]([C@@H](C)O)NC(=O)[C@H](C(C)C)NC1=O [Example 1350] ({CH2CO}-FYDWV[Bip]E[NMeA][NMeF][Orn]LVTCE-NH2; thioether N-14) | 210 |
| CC(C)C[C@@H]1NC(=O)[C@H](CCCNC(=N)N)NC(=O)[C@H](Cc2ccccc2)N(C)C(=O)[C@H](C)N(C)C(=O)[C@H](CCC(=O)O)NC(=O)[C@H](Cc2ccc(-c3ccccc3)cc2)NC(=O)[C@H](C(C)C)NC(=O)[C@H](Cc2c[nH]c3ccccc23)NC(=O)[C@H](CC(=O)O)NC(=O)[C@H](Cc2ccc(O)cc2)NC(=O)[C@H](Cc2ccccc2)NC(=O)CSC[C@@H](C(=O)N[C@@H](CCC(=O)O)C(N)=O)NC(=O)[C@H]([C@@H](C)O)NC(=O)[C@H](C(C)C)NC1=O [Example 1351] ({CH2CO}-FYDWV[Bip]E[NMeA][NMeF]RLVTCE-NH2; thioether N-14) | 380 |
| CC(C)C[C@@H]1NC(=O)[C@H](CCCN)NC(=O)[C@H](Cc2ccccc2)N(C)C(=O)[C@H](C)N(C)C(=O)[C@H](CCCNC(=N)N)NC(=O)[C@H](Cc2ccc(-c3ccccc3)cc2)NC(=O)[C@H](C(C)C)NC(=O)[C@H](Cc2c[nH]c3ccccc23)NC(=O)[C@H](CC(=O)O)NC(=O)[C@H](Cc2ccc(O)cc2)NC(=O)[C@H](CC(N)=O)NC(=O)CSC[C@@H](C(=O)N[C@@H](CCC(=O)O)C(N)=O)NC(=O)[C@H]([C@@H](C)O)NC(=O)[C@H](C(C)C)NC1=O [Example 1352] ({CH2CO}-NYDWV[Bip]R[NMeA][NMeF][Orn]LVTCE-NH2; thioether N-14) | 420 |
| CC(C)C[C@@H]1NC(=O)[C@H](CCCN)NC(=O)[C@H](Cc2ccccc2)N(C)C(=O)[C@H](C)N(C)C(=O)[C@H](CCCNC(=N)N)NC(=O)[C@H](Cc2ccc(-c3ccccc3)cc2)NC(=O)[C@H](C(C)C)NC(=O)[C@H](Cc2c[nH]c3ccccc23)NC(=O)[C@H](CC(=O)O)NC(=O)[C@H](Cc2ccc(O)cc2)NC(=O)[C@H](CC(N)=O)NC(=O)CSC[C@@H](C(=O)N[C@@H](CO)C(N)=O)NC(=O)[C@H]([C@@H](C)O)NC(=O)[C@H](C(C)C)NC1=O [Example 1353] ({CH2CO}-NYDWV[Bip]R[NMeA][NMeF][Orn]LVTCS-NH2; thioether N-14) | 90 |
| CC(C)C[C@@H]1NC(=O)[C@H](CCCCN)NC(=O)[C@H](Cc2ccccc2)N(C)C(=O)[C@H](C)N(C)C(=O)[C@H](CCCNC(=N)N)NC(=O)[C@H](Cc2ccc(-c3ccccc3)cc2)NC(=O)[C@H](C(C)C)NC(=O)[C@H](Cc2c[nH]c3ccccc23)NC(=O)[C@H](CC(=O)O)NC(=O)[C@H](Cc2ccc(O)cc2)NC(=O)[C@H](CC(N)=O)NC(=O)CSC[C@@H](C(=O)N[C@@H](CO)C(N)=O)NC(=O)[C@H]([C@@H](C)O)NC(=O)[C@H](C(C)C)NC1=O [Example 1354] ({CH2CO}-NYDWV[Bip]R[NMeA][NMeF]KLVTCS-NH2; thioether N-14) | 210 |
| CC(C)C[C@@H]1NC(=O)[C@H](CCCNC(=N)N)NC(=O)[C@H](Cc2ccccc2)N(C)C(=O)[C@H](C)N(C)C(=O)[C@H](CCCNC(=N)N)NC(=O)[C@H](Cc2ccc(-c3ccccc3)cc2)NC(=O)[C@H](C(C)C)NC(=O)[C@H](Cc2c[nH]c3ccccc23)NC(=O)[C@H](CC(=O)O)NC(=O)[C@H](Cc2ccc(O)cc2)NC(=O)[C@H](CC(N)=O)NC(=O)CSC[C@@H](C(=O)N[C@@H](C)C(N)=O)NC(=O)[C@H]([C@@H](C)O)NC(=O)[C@H](C(C)C)NC1=O [Example 1355] ({CH2CO}-NYDWV[Bip]R[NMeA][NMeF]RLVTCA-NH2; thioether N-14) | 410 |
| CC(C)C[C@@H]1NC(=O)[C@H](CCCN)NC(=O)[C@H]2Cc3ccccc3CN2C(=O)[C@H](C)N(C)C(=O)[C@H](CCCNC(=N)N)NC(=O)[C@H](Cc2ccc(-c3ccccc3)cc2)NC(=O)[C@H](C(C)C)NC(=O)[C@H](Cc2c[nH]c3ccccc23)NC(=O)[C@H](CC(=O)O)NC(=O)[C@H](Cc2ccc(O)cc2)NC(=O)[C@H](CC(N)=O)NC(=O)CSC[C@@H](C(=O)N[C@@H](C)C(N)=O)NC(=O)[C@H]([C@@H](C)O)NC(=O)[C@H](C(C)C)NC1=O [Example 1356] ({CH2CO}-NYDWV[Bip]R[NMeA][dTic][Orn]LVTCA-NH2; thioether N-14) | 270 |

More lines, now with the values ahead:

| IC50 [nM] | Structure (SMILES) |
| --- | --- |
| 210 | CC(C)C[C@@H]1NC(=O)[C@H](CCCN)NC(=O)[C@H](Cc2ccccc2)N(C)C(=O)[C@H](C)N(C)C(=O)[C@H](CCCNC(=N)N)NC(=O)[C@H](Cc2ccc(-c3ccccc3)cc2)NC(=O)[C@H](C(C)C)NC(=O)[C@H](Cc2c[nH]c3ccccc23)NC(=O)[C@H](CC(=O)O)NC(=O)[C@H](Cc2ccc(O)cc2)NC(=O)[C@H](Cc2ccccc2)NC(=O)CSC[C@@H](C(=O)N[C@@H](CO)C(N)=O)NC(=O)[C@H]([C@@H](C)O)NC(=O)[C@H](C(C)C)NC1=O [Example 1357] ({CH2CO}-FYDWV[Bip]R[NMeA][NMeF][Orn]LVTCS-NH2; thioether N-14) |
| 400 | CC(C)C[C@@H]1NC(=O)[C@H](CCCNC(=N)N)NC(=O)[C@H](Cc2ccccc2)N(C)C(=O)[C@H](C)N(C)C(=O)[C@H](CCCNC(=N)N)NC(=O)[C@H](Cc2ccc(-c3ccccc3)cc2)NC(=O)[C@H](C(C)C)NC(=O)[C@H](Cc2c[nH]c3ccccc23)NC(=O)[C@H](CC(=O)O)NC(=O)[C@H](Cc2ccc(O)cc2)NC(=O)[C@H](Cc2ccccc2)NC(=O)CSC[C@@H](C(=O)N[C@@H](C)C(N)=O)NC(=O)[C@H]([C@@H](C)O)NC(=O)[C@H](C(C)C)NC1=O [Example 1358] ({CH2CO}-FYDWV[Bip]R[NMeA][NMeF]RLVTCA-NH2; thioether N-14) |
| 270 | CC(C)C[C@@H]1NC(=O)[C@H](CCCCN)NC(=O)[C@H](Cc2ccccc2)N(C)C(=O)[C@H](C)N(C)C(=O)[C@H](CCCNC(=N)N)NC(=O)[C@H](Cc2ccc(-c3ccccc3)cc2)NC(=O)[C@H](C(C)C)NC(=O)[C@H](Cc2c[nH]c3ccccc23)NC(=O)[C@H](CC(=O)O)NC(=O)[C@H](Cc2ccc(O)cc2)NC(=O)[C@H](Cc2ccccc2)NC(=O)CSC[C@@H](C(=O)N[C@@H](CO)C(N)=O)NC(=O)[C@H]([C@@H](C)O)NC(=O)[C@H](C(C)C)NC1=O [Example 1359] ({CH2CO}-FYDWV[Bip]R[NMeA][NMeF]KLVTCS-NH2; thioether N-14) |
| 570 | CC(C)C[C@@H]1NC(=O)[C@H](CCCCN)NC(=O)[C@H](Cc2ccccc2)N(C)C(=O)[C@H](C)N(C)C(=O)[C@H](CCCNC(=N)N)NC(=O)[C@H](Cc2ccc(-c3ccccc3)cc2)NC(=O)[C@H](C(C)C)NC(=O)[C@H](Cc2c[nH]c3ccccc23)NC(=O)[C@H](CC(=O)O)NC(=O)[C@H](Cc2ccc(O)cc2)NC(=O)[C@H](CC(N)=O)NC(=O)CSC[C@@H](C(=O)N[C@@H](CCC(=O)O)C(N)=O)NC(=O)[C@H]([C@@H](C)O)NC(=O)[C@H](C(C)C)NC1=O [Example 1360] ({CH2CO}-NYDWV[Bip]R[NMeA][NMeF]KLVTCE-NH2; thioether N-14) |
| 380 | CC(C)C[C@@H]1NC(=O)[C@H](CCCN)NC(=O)[C@H](Cc2ccccc2)N(C)C(=O)[C@H](C)N(C)C(=O)[C@H](CCCNC(=N)N)NC(=O)[C@H](Cc2ccc(-c3ccccc3)cc2)NC(=O)[C@H](C(C)C)NC(=O)[C@H](Cc2c[nH]c3ccccc23)NC(=O)[C@H](CC(=O)O)NC(=O)[C@H](Cc2ccc(O)cc2)NC(=O)[C@H](Cc2ccccc2)NC(=O)CSC[C@@H](C(=O)N[C@@H](CCC(=O)O)C(N)=O)NC(=O)[C@H]([C@@H](C)O)NC(=O)[C@H](C(C)C)NC1=O [Example 1361] ({CH2CO}-FYDWV[Bip]R[NMeA][NMeF][Orn]LVTCE-NH2; thioether N-14) |
| 190 | CC(C)C[C@@H]1NC(=O)[C@H](CCCNC(=N)N)NC(=O)[C@H](Cc2ccccc2)N(C)C(=O)[C@H]2CCCN2C(=O)[C@H](CCCNC(=N)N)NC(=O)[C@H](Cc2ccc(-c3ccccc3)cc2)NC(=O)[C@H](C(C)C)NC(=O)[C@H](Cc2c[nH]c3ccccc23)NC(=O)[C@H](CC(=O)O)NC(=O)[C@H](Cc2ccc(O)cc2)NC(=O)[C@H](CC(N)=O)NC(=O)CSC[C@@H](C(=O)N[C@@H](C)C(N)=O)NC(=O)[C@H]([C@@H](C)O)NC(=O)[C@H](C(C)C)NC1=O [Example 1362] ({CH2CO}-NYDWV[Bip]R[dP][NMeF]RLVTCA-NH2; thioether N-14) |
| 940 | CC(C)C[C@@H]1NC(=O)[C@H](CCCNC(=N)N)NC(=O)[C@H](Cc2ccccc2)N(C)C(=O)[C@@H](C)NC(=O)[C@H](CCCNC(=N)N)NC(=O)[C@H](Cc2ccc(-c3ccccc3)cc2)NC(=O)[C@H](C(C)C)NC(=O)[C@H](Cc2c[nH]c3ccccc23)NC(=O)[C@H](CC(=O)O)NC(=O)[C@H](Cc2ccc(O)cc2)NC(=O)[C@H](CC(N)=O)NC(=O)CSC[C@@H](C(=O)N[C@@H](C)C(N)=O)NC(=O)[C@H]([C@@H](C)O)NC(=O)[C@H](C(C)C)NC1=O [Example 1363] ({CH2CO}-NYDWV[Bip]R[dA][NMeF]RLVTCA-NH2; thioether N-14) |
| 590 | CC(C)C[C@@H]1NC(=O)[C@H](CCCNC(=N)N)NC(=O)[C@H](Cc2ccccc2)N(C)C(=O)[C@H](CN)NC(=O)[C@H](CCCNC(=N)N)NC(=O)[C@H](Cc2ccc(-c3ccccc3)cc2)NC(=O)[C@H](C(C)C)NC(=O)[C@H](Cc2c[nH]c3ccccc23)NC(=O)[C@H](CC(=O)O)NC(=O)[C@H](Cc2ccc(O)cc2)NC(=O)[C@H](CC(N)=O)NC(=O)CSC[C@@H](C(=O)N[C@@H](C)C(N)=O)NC(=O)[C@H]([C@@H](C)O)NC(=O)[C@H](C(C)C)NC1=O [Example 1364] ({CH2CO}-NYDWV[Bip]R[Dap][NMeF]RLVTCA-NH2; thioether N-14) |
